{"source": "patent US20230017045A1", "about": "“PYRIDINE AND PYRIMIDINE CARBOXYLATE HERBICIDES AND METHODS OF USE THEREOF” (Dow AgroSciences LLC, priority 2017, published 2023)"}
{"tested_on": "test plant species", "assay": "Post-emergent herbicidal activity test (greenhouse, foliar spray, visual growth reduction)", "format": "in vivo", "conditions": "post-emergence, 336 h, ALOMY: blackgrass (Alopecurus myosuroides), 140 g ai/ha, 14 days after application, read-out: Visual Growth Reduction (%) 14 Days After Application, ALOMY", "method_in_brief": "(§1)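 Scoring used a 0 to 100 percent visual scale of growth reduction against solvent-treated controls, read 14 d after spraying. Applications went onto plants at first or second true leaf stage, 187 L/ha, with crop oil concentrate and X-77 surfactant in the carrier. Post-treatment watering was by subirrigation to avoid wash-off.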", "units": {"pest or weed control at 140 g/ha": "%"}}
{"smiles": "COC(=O)c1nc(-c2ccc(C(F)(F)F)nc2)c(Cl)cc1Cl", "note": "[F99, methyl 3,5-dichloro-6′-(trifluoromethyl)-[2,3′-bipyridine]-6-carboxylate]", "pest or weed control at 140 g/ha": "0 to 29"}
{"smiles": "COC(=O)c1nc(-c2ccc(SC(F)(F)F)cc2)ccc1Cl", "note": "[F97, Methyl 3-chloro-6-(4-((trifluoromethyl)thio)phenyl)picolinate]", "pest or weed control at 140 g/ha": "0 to 29"}
{"tested_on": "test plant species", "assay": "Post-emergent herbicidal activity test (greenhouse, foliar spray, visual growth reduction)", "format": "in vivo", "conditions": "post-emergence, 336 h, AMARE: redroot pigweed (Amaranthus retroflexus), 140 g ai/ha, 14 days after application, read-out: Visual Growth Reduction (%) 14 Days After Application, AMARE", "method_in_brief": "as §1", "units": {"pest or weed control at 140 g/ha": "%"}}
{"smiles": "COC(=O)c1nc(-c2ccc(C(F)(F)F)nc2)c(Cl)cc1Cl", "note": "[F99, methyl 3,5-dichloro-6′-(trifluoromethyl)-[2,3′-bipyridine]-6-carboxylate]", "pest or weed control at 140 g/ha": "0 to 29"}
{"smiles": "COC(=O)c1nc(-c2ccc(SC(F)(F)F)cc2)ccc1Cl", "note": "[F97, Methyl 3-chloro-6-(4-((trifluoromethyl)thio)phenyl)picolinate]", "pest or weed control at 140 g/ha": "0 to 29"}
{"tested_on": "test plant species", "assay": "Post-emergent herbicidal activity test (greenhouse, foliar spray, visual growth reduction)", "format": "in vivo", "conditions": "post-emergence, 336 h, AVEFA: wild oat (Avena fatua), 140 g ai/ha, 14 days after application, read-out: Visual Growth Reduction (%) 14 Days After Application, AVEFA", "method_in_brief": "as §1", "units": {"pest or weed control at 140 g/ha": "%"}}
{"smiles": "COC(=O)c1nc(-c2ccc(C(F)(F)F)nc2)c(Cl)cc1Cl", "note": "[F99, methyl 3,5-dichloro-6′-(trifluoromethyl)-[2,3′-bipyridine]-6-carboxylate]", "pest or weed control at 140 g/ha": "0 to 29"}
{"smiles": "COC(=O)c1nc(-c2ccc(SC(F)(F)F)cc2)ccc1Cl", "note": "[F97, Methyl 3-chloro-6-(4-((trifluoromethyl)thio)phenyl)picolinate]", "pest or weed control at 140 g/ha": "0 to 29"}
{"tested_on": "test plant species", "assay": "Post-emergent herbicidal activity test (greenhouse, foliar spray, visual growth reduction)", "format": "in vivo", "conditions": "post-emergence, 336 h, CHEAL: lambsquarters (Chenopodium album), 140 g ai/ha, 14 days after application, read-out: Visual Growth Reduction (%) 14 Days After Application, CHEAL", "method_in_brief": "as §1", "units": {"pest or weed control at 140 g/ha": "%"}}
{"smiles": "COC(=O)c1nc(-c2ccc(C(F)(F)F)nc2)c(Cl)cc1Cl", "note": "[F99, methyl 3,5-dichloro-6′-(trifluoromethyl)-[2,3′-bipyridine]-6-carboxylate]", "pest or weed control at 140 g/ha": "0 to 29"}
{"smiles": "COC(=O)c1nc(-c2ccc(SC(F)(F)F)cc2)ccc1Cl", "note": "[F97, Methyl 3-chloro-6-(4-((trifluoromethyl)thio)phenyl)picolinate]", "pest or weed control at 140 g/ha": "0 to 29"}
{"tested_on": "test plant species", "assay": "Post-emergent herbicidal activity test (greenhouse, foliar spray, visual growth reduction)", "format": "in vivo", "conditions": "post-emergence, 336 h, CIRAR: canada thistle (Cirsium arvense), 140 g ai/ha, 14 days after application, read-out: Visual Growth Reduction (%) 14 Days After Application, CIRAR", "method_in_brief": "as §1", "units": {"pest or weed control at 140 g/ha": "%"}}
{"smiles": "COC(=O)c1nc(-c2ccc(C(F)(F)F)nc2)c(Cl)cc1Cl", "note": "[F99, methyl 3,5-dichloro-6′-(trifluoromethyl)-[2,3′-bipyridine]-6-carboxylate]", "pest or weed control at 140 g/ha": "0 to 29"}
{"smiles": "COC(=O)c1nc(-c2ccc(SC(F)(F)F)cc2)ccc1Cl", "note": "[F97, Methyl 3-chloro-6-(4-((trifluoromethyl)thio)phenyl)picolinate]", "pest or weed control at 140 g/ha": "0 to 29"}
{"tested_on": "test plant species", "assay": "Post-emergent herbicidal activity test (greenhouse, foliar spray, visual growth reduction)", "format": "in vivo", "conditions": "post-emergence, 336 h, CYPES: yellow nutsedge (Cyperus esculentus), 140 g ai/ha, 14 days after application, read-out: Visual Growth Reduction (%) 14 Days After Application, CYPES", "method_in_brief": "as §1", "units": {"pest or weed control at 140 g/ha": "%"}}
{"smiles": "COC(=O)c1nc(-c2ccc(C(F)(F)F)nc2)c(Cl)cc1Cl", "note": "[F99, methyl 3,5-dichloro-6′-(trifluoromethyl)-[2,3′-bipyridine]-6-carboxylate]", "pest or weed control at 140 g/ha": "0 to 29"}
{"smiles": "COC(=O)c1nc(-c2ccc(SC(F)(F)F)cc2)ccc1Cl", "note": "[F97, Methyl 3-chloro-6-(4-((trifluoromethyl)thio)phenyl)picolinate]", "pest or weed control at 140 g/ha": "0 to 29"}
{"tested_on": "test plant species", "assay": "Post-emergent herbicidal activity test (greenhouse, foliar spray, visual growth reduction)", "format": "in vivo", "conditions": "post-emergence, 336 h, DIGSA: crabgrass (Digitaria sanguinalis), 140 g ai/ha, 14 days after application, read-out: Visual Growth Reduction (%) 14 Days After Application, DIGSA", "method_in_brief": "as §1", "units": {"pest or weed control at 140 g/ha": "%"}}
{"smiles": "COC(=O)c1nc(-c2ccc(C(F)(F)F)nc2)c(Cl)cc1Cl", "note": "[F99, methyl 3,5-dichloro-6′-(trifluoromethyl)-[2,3′-bipyridine]-6-carboxylate]", "pest or weed control at 140 g/ha": "0 to 29"}
{"smiles": "COC(=O)c1nc(-c2ccc(SC(F)(F)F)cc2)ccc1Cl", "note": "[F97, Methyl 3-chloro-6-(4-((trifluoromethyl)thio)phenyl)picolinate]", "pest or weed control at 140 g/ha": "0 to 29"}
{"tested_on": "test plant species", "assay": "Post-emergent herbicidal activity test (greenhouse, foliar spray, visual growth reduction)", "format": "in vivo", "conditions": "post-emergence, 336 h, ECHCG: barnyardgrass (Echinochloa crus-galli), 140 g ai/ha, 14 days after application, read-out: Visual Growth Reduction (%) 14 Days After Application, ECHCG", "method_in_brief": "as §1", "units": {"pest or weed control at 140 g/ha": "%"}}
{"smiles": "COC(=O)c1nc(-c2ccc(C(F)(F)F)nc2)c(Cl)cc1Cl", "note": "[F99, methyl 3,5-dichloro-6′-(trifluoromethyl)-[2,3′-bipyridine]-6-carboxylate]", "pest or weed control at 140 g/ha": "0 to 29"}
{"smiles": "COC(=O)c1nc(-c2ccc(SC(F)(F)F)cc2)ccc1Cl", "note": "[F97, Methyl 3-chloro-6-(4-((trifluoromethyl)thio)phenyl)picolinate]", "pest or weed control at 140 g/ha": "0 to 29"}
{"tested_on": "test plant species", "assay": "Post-emergent herbicidal activity test (greenhouse, foliar spray, visual growth reduction)", "format": "in vivo", "conditions": "post-emergence, 336 h, IPOHE: ivy-leaf morning glory (Ipomoea hederacea), 140 g ai/ha, 14 days after application, read-out: Visual Growth Reduction (%) 14 Days After Application, IPOHE", "method_in_brief": "as §1", "units": {"pest or weed control at 140 g/ha": "%"}}
{"smiles": "COC(=O)c1nc(-c2ccc(C(F)(F)F)nc2)c(Cl)cc1Cl", "note": "[F99, methyl 3,5-dichloro-6′-(trifluoromethyl)-[2,3′-bipyridine]-6-carboxylate]", "pest or weed control at 140 g/ha": "0 to 29"}
{"smiles": "COC(=O)c1nc(-c2ccc(SC(F)(F)F)cc2)ccc1Cl", "note": "[F97, Methyl 3-chloro-6-(4-((trifluoromethyl)thio)phenyl)picolinate]", "pest or weed control at 140 g/ha": "0 to 29"}
{"tested_on": "test plant species", "assay": "Post-emergent herbicidal activity test (greenhouse, foliar spray, visual growth reduction)", "format": "in vivo", "conditions": "post-emergence, 336 h, KCHSC: kochia (Bassia scoparia), 140 g ai/ha, 14 days after application, read-out: Visual Growth Reduction (%) 14 Days After Application, KCHSC", "method_in_brief": "as §1", "units": {"pest or weed control at 140 g/ha": "%"}}
{"smiles": "COC(=O)c1nc(-c2ccc(C(F)(F)F)nc2)c(Cl)cc1Cl", "note": "[F99, methyl 3,5-dichloro-6′-(trifluoromethyl)-[2,3′-bipyridine]-6-carboxylate]", "pest or weed control at 140 g/ha": "0 to 29"}
{"smiles": "COC(=O)c1nc(-c2ccc(SC(F)(F)F)cc2)ccc1Cl", "note": "[F97, Methyl 3-chloro-6-(4-((trifluoromethyl)thio)phenyl)picolinate]", "pest or weed control at 140 g/ha": "0 to 29"}
{"tested_on": "test plant species", "assay": "Post-emergent herbicidal activity test (greenhouse, foliar spray, visual growth reduction)", "format": "in vivo", "conditions": "post-emergence, 336 h, ORYSA: rice (Oryza sativa), 140 g ai/ha, 14 days after application, read-out: Visual Growth Reduction (%) 14 Days After Application, ORYSA", "method_in_brief": "as §1", "units": {"pest or weed control at 140 g/ha": "%"}}
{"smiles": "COC(=O)c1nc(-c2ccc(C(F)(F)F)nc2)c(Cl)cc1Cl", "note": "[F99, methyl 3,5-dichloro-6′-(trifluoromethyl)-[2,3′-bipyridine]-6-carboxylate]", "pest or weed control at 140 g/ha": "0 to 29"}
{"smiles": "COC(=O)c1nc(-c2ccc(SC(F)(F)F)cc2)ccc1Cl", "note": "[F97, Methyl 3-chloro-6-(4-((trifluoromethyl)thio)phenyl)picolinate]", "pest or weed control at 140 g/ha": "0 to 29"}
{"tested_on": "test plant species", "assay": "Post-emergent herbicidal activity test (greenhouse, foliar spray, visual growth reduction)", "format": "in vivo", "conditions": "post-emergence, 336 h, SETFA: giant foxtail (Setaria faberi), 140 g ai/ha, 14 days after application, read-out: Visual Growth Reduction (%) 14 Days After Application, SETFA", "method_in_brief": "as §1", "units": {"pest or weed control at 140 g/ha": "%"}}
{"smiles": "COC(=O)c1nc(-c2ccc(C(F)(F)F)nc2)c(Cl)cc1Cl", "note": "[F99, methyl 3,5-dichloro-6′-(trifluoromethyl)-[2,3′-bipyridine]-6-carboxylate]", "pest or weed control at 140 g/ha": "0 to 29"}
{"smiles": "COC(=O)c1nc(-c2ccc(SC(F)(F)F)cc2)ccc1Cl", "note": "[F97, Methyl 3-chloro-6-(4-((trifluoromethyl)thio)phenyl)picolinate]", "pest or weed control at 140 g/ha": "0 to 29"}
{"tested_on": "test plant species", "assay": "Post-emergent herbicidal activity test (greenhouse, foliar spray, visual growth reduction)", "format": "in vivo", "conditions": "post-emergence, 336 h, SORVU: grain sorghum (Sorghum vulgare), 140 g ai/ha, 14 days after application, read-out: Visual Growth Reduction (%) 14 Days After Application, SORVU", "method_in_brief": "as §1", "units": {"pest or weed control at 140 g/ha": "%"}}
{"smiles": "COC(=O)c1nc(-c2ccc(C(F)(F)F)nc2)c(Cl)cc1Cl", "note": "[F99, methyl 3,5-dichloro-6′-(trifluoromethyl)-[2,3′-bipyridine]-6-carboxylate]", "pest or weed control at 140 g/ha": "0 to 29"}
{"smiles": "COC(=O)c1nc(-c2ccc(SC(F)(F)F)cc2)ccc1Cl", "note": "[F97, Methyl 3-chloro-6-(4-((trifluoromethyl)thio)phenyl)picolinate]", "pest or weed control at 140 g/ha": "0 to 29"}
{"tested_on": "test plant species", "assay": "Post-emergent herbicidal activity test (greenhouse, foliar spray, visual growth reduction)", "format": "in vivo", "conditions": "post-emergence, 336 h, STEME: common chickweed (Stellaria media), 140 g ai/ha, 14 days after application, read-out: Visual Growth Reduction (%) 14 Days After Application, STEME", "method_in_brief": "as §1", "units": {"pest or weed control at 140 g/ha": "%"}}
{"smiles": "COC(=O)c1nc(-c2ccc(C(F)(F)F)nc2)c(Cl)cc1Cl", "note": "[F99, methyl 3,5-dichloro-6′-(trifluoromethyl)-[2,3′-bipyridine]-6-carboxylate]", "pest or weed control at 140 g/ha": "0 to 29"}
{"smiles": "COC(=O)c1nc(-c2ccc(SC(F)(F)F)cc2)ccc1Cl", "note": "[F97, Methyl 3-chloro-6-(4-((trifluoromethyl)thio)phenyl)picolinate]", "pest or weed control at 140 g/ha": "0 to 29"}
{"tested_on": "test plant species", "assay": "Post-emergent herbicidal activity test (greenhouse, foliar spray, visual growth reduction)", "format": "in vivo", "conditions": "post-emergence, 336 h, TRZAS: wheat, spring (Triticum aestivum), 140 g ai/ha, 14 days after application, read-out: Visual Growth Reduction (%) 14 Days After Application, TRZAS", "method_in_brief": "as §1", "units": {"pest or weed control at 140 g/ha": "%"}}
{"smiles": "COC(=O)c1nc(-c2ccc(C(F)(F)F)nc2)c(Cl)cc1Cl", "note": "[F99, methyl 3,5-dichloro-6′-(trifluoromethyl)-[2,3′-bipyridine]-6-carboxylate]", "pest or weed control at 140 g/ha": "0 to 29"}
{"smiles": "COC(=O)c1nc(-c2ccc(SC(F)(F)F)cc2)ccc1Cl", "note": "[F97, Methyl 3-chloro-6-(4-((trifluoromethyl)thio)phenyl)picolinate]", "pest or weed control at 140 g/ha": "0 to 29"}
